Earlier results in patent US8445670B2, “Combinatorial library approach to iminocyclitols with biological activity” (United Therapeutics Corporation, priority 2005, dated 2013).

Tested on: bovine viral diarrhoea virus (BVDV)
Conditions: reference DNJ derivatives, values given with literature references

SMILES	IC50 [µM]
CCCCN1C[C@H](O)[C@@H](O)[C@H](O)[C@H]1CO [N-n-butyl DNJ]	125
CCCCCCCCCN1C[C@H](O)[C@@H](O)[C@H](O)[C@H]1CO [N-n-nonyl DNJ]	10
